“And” between values parts separate entries of the source, which are not always exact repeats. Equal entries are not always repeated.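 The compound was tested at five concentrations on cells cultured in 96-well plates, with a 48-hour exposure period. At the GI50, growth is halved. TGI: concentration producing complete growth inhibition.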
Tests used:
Experiment in all cases: NCI tumour cell line growth inhibition, 48 h
DMS 114 small cell lung = system: DMS 114 small cell lung
KM20L2 colon = system: KM20L2 colon
M19-MEL melanoma = system: M19-MEL melanoma
HOP-18 NSCLC = system: HOP-18 NSCLC
XF 498 CNS = system: XF 498 CNS
P388/ADR leukemia = system: P388/ADR leukemia
SN12K1 renal = system: SN12K1 renal
P388 leukemia = system: P388 leukemia
RXF-631 renal = system: RXF-631 renal

Structure (SMILES)	TGI (DMS 114 small cell lung)	TGI (KM20L2 colon)	TGI (M19-MEL melanoma)	TGI (HOP-18 NSCLC)	TGI (XF 498 CNS)	TGI (P388/ADR leukemia)	TGI (SN12K1 renal)	GI50 (P388 leukemia)	TGI (P388 leukemia)	TGI (RXF-631 renal)	GI50 (XF 498 CNS)
O=C1c2ccccc2C(=O)N1Cc1ccccc1-c1c2nc(c(-c3ccccc3CN3C(=O)c4ccccc4C3=O)c3ccc([nH]3)c(-c3ccccc3CN3C(=O)c4ccccc4C3=O)c3nc(c(-c4ccccc4CN4C(=O)c5ccccc5C4=O)c4ccc1[nH]4)C=C3)C=C2	> 100 µM	> 100 µM	> 100 µM	> 100 µM							
CC(=O)C1=C(C)NC2C=CC=CN12 (stereo not drawn)	> 100 µM	> 100 µM	> 100 µM	> 100 µM	> 100 µM						
Cc1[nH]c(=O)[nH]c(=O)c1/C=C/C(=O)O	> 1000 µM	> 1000 µM	> 1000 µM	> 1000 µM	> 1000 µM	> 1000 µM	> 1000 µM	> 1000 µM	> 1000 µM		
CCCCCCCCCCCCCCCCCC(=O)O[C@H](COC(=O)CCCCCCCCCCC)COC(=O)CCCCCCCCCCCCCCC	> 100 µM	> 100 µM	> 100 µM	> 100 µM						> 100 µM	
O=C(CSc1nnc(Cc2ccccc2)o1)Nc1ccc([N+](=O)[O-])cc1	72.2 µM	> 100 µM	> 100 µM								
CC(=O)OC1CC2C(C)(C)OC(=O)CC(OC(C)=O)[C@]2(C)C2CCC3(C)C(=CCC3[C@H]3COC(=O)C3)[C@]12C (stereo partly drawn)	> 100 µM	> 100 µM	> 100 µM		> 100 µM						
COc1cc(Nc2c3ccccc3nc3ccccc23)ccc1NS(C)(=O)=O		17.1 µM	22.3 µM	26.3 µM							
O=C(NC(Cc1ccc(I)cc1)C(=O)O)c1ccc(Br)cc1 (stereo not drawn)	> 100 µM	> 100 µM	> 100 µM	> 100 µM	> 100 µM	> 31.6 µM	> 100 µM		> 100 µM		
O=C1Nc2c(ccc(Cl)c2I)C1=O	30.1 µM	> 100 µM	24.1 µM		29.9 µM						
COc1cc(CNc2ccc(SC)cc2)cc(OC)c1OC	20.9 µM and 8.02 µM	19.5 µM and 23.3 µM		> 100 µM	91.2 µM and 40 µM						23.4 µM and 11.1 µM
NC1=NS(=O)(=O)Nc2nc(-c3ccc([N+](=O)[O-])cc3)[nH]c21	> 100 µM		> 100 µM	> 100 µM							
CC(=O)Nc1cc2c(s1)CCC1CC(=O)NN=C21 (stereo not drawn)	> 100 µM	> 100 µM	> 100 µM		> 100 µM						
CC(C)C(=O)/C=C/c1ccc(Br)cc1	37 µM	21.5 µM	28.9 µM		30.4 µM						
NC1=NS(=O)(=O)Nc2nc(-c3ccc(Cl)cc3)c(-c3ccc(Cl)cc3)nc21	> 100 µM		> 100 µM	> 100 µM	> 100 µM					> 100 µM	
COc1ccc(O)cc1	> 100 µM	> 100 µM	> 100 µM		> 100 µM						
Oc1cc(C2OCCCO2)cc(O)c1O	> 100 µM	> 100 µM	> 100 µM	> 100 µM						> 100 µM	
CCCC(C)NC1=C(NC(C)=O)C(=O)c2ccccc2C1=O (stereo not drawn)		> 100 µM	> 100 µM		> 100 µM						
